{"source": "paper PMC8741506", "about": "(Poultry Science, 2021)", "note": "pIC50: −log10 of the molar value.", "data": [{"target": "T1, IBV PLpro (Avian infectious bronchitis virus (strain M41), UniProt P0C6Y3)", "T1 sequence (P0C6Y3 1177-1499)": "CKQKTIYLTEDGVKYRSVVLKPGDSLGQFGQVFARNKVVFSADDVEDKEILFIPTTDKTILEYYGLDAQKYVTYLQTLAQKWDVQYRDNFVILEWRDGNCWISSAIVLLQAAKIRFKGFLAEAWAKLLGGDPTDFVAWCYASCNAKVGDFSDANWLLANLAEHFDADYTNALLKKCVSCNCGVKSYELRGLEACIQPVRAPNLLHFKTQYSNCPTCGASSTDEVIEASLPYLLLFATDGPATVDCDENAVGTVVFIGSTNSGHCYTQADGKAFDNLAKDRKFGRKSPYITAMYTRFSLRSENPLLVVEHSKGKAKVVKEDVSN", "assay": "UB-AMC deubiquitination, fluorescence kinetics", "type": "biochemical", "conditions": "not given", "values": [{"smiles": "O=c1c(O)c(-c2cc(O)c(O)c(O)c2)oc2cc(O)cc(O)c12", "note": "[myricetin]", "pIC50": 4.97}]}, {"target": "T1, IBV PLpro", "assay": "UB-AMC deubiquitination, fluorescence kinetics", "type": "biochemical", "conditions": "read-out: relative enzymatic activity at 100 μM", "units": {"activity at 100 µM": "%"}, "values": [{"smiles": "O=c1cc(-c2ccccc2)oc2cc(O)c(O)c(O)c12", "note": "[baicalein]", "activity at 100 µM": "< 20"}, {"smiles": "O=c1cc(-c2ccccc2)oc2cc(O)cc(O)c12", "note": "[chrysin]", "activity at 100 µM": "< 20"}, {"smiles": "COc1ccc(-c2oc3c(CC=C(C)C)c(O[C@@H]4O[C@H](CO)[C@@H](O)[C@H](O)[C@H]4O)cc(O)c3c(=O)c2O[C@@H]2O[C@@H](C)[C@H](O)[C@@H](O)[C@H]2O)cc1", "note": "[icariin]", "activity at 100 µM": "< 20"}, {"smiles": "C[C@@H]1O[C@@H](O[C@H]2[C@H](Oc3cc(O)c4c(c3)O[C@H](c3ccc(O)cc3)CC4=O)O[C@H](CO)[C@@H](O)[C@@H]2O)[C@H](O)[C@H](O)[C@H]1O", "note": "[naringin]", "activity at 100 µM": "< 20"}, {"smiles": "O=c1c2cc(O)c(O)cc2oc2cc(O)c([C@@H]3O[C@H](CO)[C@@H](O)[C@H](O)[C@H]3O)c(O)c12", "note": "[mangiferin]", "activity at 100 µM": "< 20"}]}]}
